According to ChEMBL document CHEMBL4602734, “Hybrid Screening Approach for Very Small Fragments: X-ray and Computational Screening on FKBP51” (J Med Chem, 2020):
pKd: −log10 of the molar value. Activity calls are given as the source filed them. The calls are words filed in the database; no cut-off is given here.

Experiments:
[1] = biological target: T1, Peptidyl-prolyl cis-trans isomerase FKBP5 (Homo sapiens) (UniProt Q13451); experiment: Binding affinity to 15N-labeled FKBP51 (1 to 140 residues) (unknown origin) expressed in Escherichia coli OD2N assessed as induction of chemical shift perturbations at Ile87 residues by two-dimensional 1H/15N HSQC NMR spectroscopy
T1 sequence (whole entry): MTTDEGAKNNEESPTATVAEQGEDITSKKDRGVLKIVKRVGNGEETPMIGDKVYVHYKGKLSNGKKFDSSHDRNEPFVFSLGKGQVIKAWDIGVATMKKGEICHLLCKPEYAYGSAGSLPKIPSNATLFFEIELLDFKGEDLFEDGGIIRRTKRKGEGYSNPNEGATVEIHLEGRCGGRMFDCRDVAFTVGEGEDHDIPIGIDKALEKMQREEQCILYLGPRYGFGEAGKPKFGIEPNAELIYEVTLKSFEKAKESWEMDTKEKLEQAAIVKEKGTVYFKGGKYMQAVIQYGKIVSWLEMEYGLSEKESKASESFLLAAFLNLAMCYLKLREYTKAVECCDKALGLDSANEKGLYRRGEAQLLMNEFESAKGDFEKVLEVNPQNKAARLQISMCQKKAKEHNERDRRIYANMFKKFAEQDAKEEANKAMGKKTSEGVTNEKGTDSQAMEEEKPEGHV

[2] = biological target: T2, Peptidyl-prolyl cis-trans isomerase FKBP5 (Homo sapiens, UniProt Q13451); experiment: Binding affinity to 15N-labeled FKBP51 (1 to 140 residues) (unknown origin) expressed in Escherichia coli OD2N by two-dimensional 1H/15N HSQC NMR spectroscopy
T2 sequence (Q13451 whole entry): T1 sequence (whole entry)

[3] = biological target: T1, Peptidyl-prolyl cis-trans isomerase FKBP5 (Homo sapiens); experiment: Binding affinity to 15N-labeled FKBP51 (1 to 140 residues) (unknown origin) expressed in Escherichia coli OD2N assessed as induction of chemical shift perturbations by two-dimensional 1H/15N HSQC NMR spectroscopy
[4] = biological target: T1, Peptidyl-prolyl cis-trans isomerase FKBP5 (Homo sapiens); experiment: Binding affinity to 15N-labeled FKBP51 (1 to 140 residues) (unknown origin) expressed in Escherichia coli OD2N assessed as induction of chemical shift perturbations at Leu81, Gly82, Gln85, Ile87, Ala89, Trp90, Asp91, Met97, and Glu110 residues by two-dimensional 1H/15N HSQC NMR spectroscopy

Row | SMILES | Activity [1] | pKd [2] | Activity [3] | Activity [4]
1 | Oc1ccccn1 | Active | 2.89 | – | –
2 | O=C1CNC(=O)N1 | – | – | inactive | –
3 | NC(=O)c1cccnc1 | – | – | inactive | –
4 | O=C1CCCCN1 | – | 2.55 | – | Active
5 | Cc1c[nH]cn1 | Active | 2.54 | – | –
6 | c1c[nH]cn1 [IMIDAZOLE] | Active | 2.36 | – | –
